Like-named read-outs stand apart in the source and are kept apart here.
Assays:
[1] = test system: rats; assay: Anti-inflammatory activity: carragenic test (carragenine-induced edema of the hind leg); format: in vivo, male rats; settings: for ED50: Rattus norvegicus, oral, read-out: ED 50
Experimental: All products were administered in gummy julep except No. 1 and No. 13 which were administered in suspension in Tween. The anti-inflammatory activity was determined by the carragenic test with male rats. Inflammation was induced by the injection of 0.1 ml of a 0.5% suspension of carragenine in a physiological serum into the muscular fasciculus of the metatarsal region of the hind leg of the animal. The substance to be tested was orally administered simultaneously with the carragenine. The edema was measured by phethysmography 1, 2, 3, 4, 5 and 6 hours after the administration of the carragenine.
**50 mg/kg No. 13 which were administered in suspension in Tween.

[2] = Oral toxicity in mice (LDO, LD50); format: in vivo; settings: mouse, in vivo, gummy julep (No. 1 and 13 in Tween), 2 weeks observation
Experimental: (§1) This toxicity is estimated by the calculation of the lethal dose of 50 (LD 50) which determines the fatal dose of the substance for 50% of the animals tested. This determination was effected in accordance with a modification of the method by Litchfield and Wilcoxon (J. Pharmacol. Exp. Therap. 1949, 96, 99-113).
(§2) Swiss mice without specific pathogenic organisms were kept in air conditioned rooms 24 to 48 hours before the start of the tests. They were divided into batches of 5.male. and 5.female.. With the animals unfed for 24 hours, the substances were intragastically administered in suspension in 2% Tween 80 or in 6% gummy julep in a volume equivalent to 0.1 ml per 10 g of the weight of the animal.
(§3) They remained under observation for two weeks before being killed and subjected to an autopsy.
(§4) All products were administered in gummy julep except No. 1 and No. 13 which were administered in Tween. The analgesic activity were determined in mice by utilizing as a nociceptive agent, phenylbenzoquinone (PBQ) (modification of the method by Siegmund and co-workers Proc. Soc. Exp. Biol. Med. 1957, 95, 729-31). The process consists of seeking a possible protection for the mouse vis-a-vis abdominal twisting and stretching of the hind legs induced by the parental injection of PBQ. 25 minutes after having orally administered the products to be tested in suspension in 2% Tween 80 or in 6% gummy julep, the PBQ solution was injected and the mice were observed after 5 minutes during the following 5 minutes. For certain products, AD 50 is presented as a measure of activity.

[3] = test system: mice; assay: Oral toxicity in mice (LDO, LD50); format: in vivo; settings: gummy julep (No. 1 and 13 in Tween), 2 weeks observation
Experimental: as §1, §2, §3, §4

[4] = test system: mice; assay: Analgesic activity: protection against abdominal twisting induced by phenylbenzoquinone (PBQ); format: in vivo; settings: for ED50: Mus musculus, oral, read-out: AD 50 (the source's name)
Experimental: as §4, with “activity. […]” for “activity.”

[5] = test system: rats; assay: Ulcerous activity (modified method of Colot); format: in vivo, female EOPS rats
Experimental: Ulcerous activity was determined according to a modification of the method by Colot (Technical notions of general pharmacology, 1972) in the case of femal EOPS rats of approximately 150 g. The animals were left without absolutely any food, while the test products were orally administered on a daily basis in suspension in 2% Tween at a volume of 0.5 ml/100 g. The animals were killed under chloroform and the stomachs were removed. Ulcerous activity was established by means of an index taking into account the degree of ulceration and the percentage of animals effected.
In the table given below, a comparison is shown between the results obtained with niflumic acid and product No. 1.

Compound	% activity (inhibition of edema) ([1]; 200 mg/kg oral, 4H) [%]	% activity (inhibition of edema) ([1]; 400 mg/kg oral, 4H) [%]	ED50 ([1]; 2H) [mg/kg]	ED50 ([1]; 4H) [mg/kg]	LD50 at 336 h [2] [mg/kg]	LDO (maximum dose which did not lead to any mortality) [3] [mg/kg]	ED50 [4] [mg/kg]	% activity ([4]; 200 mg/kg oral) [%]	further results
Cc1cc2c(cc1NC1OC(=O)c3ccccc31)OCO2 (stereo not drawn) [Product 9]	39	60	220	240	> 2000	1000 to 2000	70	–	% activity (inhibition of edema) ([1]; 200 mg/kg oral, 2H): 29%; % activity (inhibition of edema) ([1]; 400 mg/kg oral, 2H): 71%; % activity ([4]; 100 mg/kg oral): 83%
O=C(O)c1cccnc1Nc1cccc(C(F)(F)F)c1 [Niflumic acid]	–	–	34	125	~350	–	17	–	IA: Acute ulceration index ([5]; 83 mg/kg oral daily, 1 day): 8; IC: Ulceration index on the way of cicatrization ([5]; 83 mg/kg oral daily, 1 day): 380; IT: Total index ([5]; 83 mg/kg oral daily, 1 day): 388; IA: Acute ulceration index ([5]; 83 mg/kg oral daily, 3 days): 16; IC: Ulceration index on the way of cicatrization ([5]; 83 mg/kg oral daily, 3 days): 206; IT: Total index ([5]; 83 mg/kg oral daily, 3 days): 222
O=C1OC(Nc2ccc3c(c2)OCO3)c2ccccc21 (stereo not drawn) [Product 1]	–	–	–	–	~2600	–	–	–	IA: Acute ulceration index ([5]; 250 mg/kg oral daily, 1 day): 0; IC: Ulceration index on the way of cicatrization ([5]; 250 mg/kg oral daily, 1 day): 1.5; IA: Acute ulceration index ([5]; 250 mg/kg oral daily, 3 days): 5; IC: Ulceration index on the way of cicatrization ([5]; 250 mg/kg oral daily, 3 days): 22
CCCCC1(C)Oc2ccc(NC3OC(=O)c4ccccc43)cc2O1 (stereo not drawn) [Product 5]	28	17	–	–	> 2000	> 2000	270	42	–
O=C1OC(Nc2ccc3c(c2)OC2(CCCCC2)O3)c2ccccc21 (stereo not drawn) [Product 3]	20	21	–	–	≥ 2000	1000 to 2000	–	29	–
